Data on 22 molecules can be found in patent US20260365646A1, “AKT1 MODULATORS” (Alterome Therapeutics, Inc., priority 2022, published 2026).

The target of one experiment is T1, full length AKT E17K (Homo sapiens, UniProt P31749, E17K).
T1 construct: host or cells: HEK-293 (ATCC CRL-1573)
T1 sequence (P31749 whole entry E17K): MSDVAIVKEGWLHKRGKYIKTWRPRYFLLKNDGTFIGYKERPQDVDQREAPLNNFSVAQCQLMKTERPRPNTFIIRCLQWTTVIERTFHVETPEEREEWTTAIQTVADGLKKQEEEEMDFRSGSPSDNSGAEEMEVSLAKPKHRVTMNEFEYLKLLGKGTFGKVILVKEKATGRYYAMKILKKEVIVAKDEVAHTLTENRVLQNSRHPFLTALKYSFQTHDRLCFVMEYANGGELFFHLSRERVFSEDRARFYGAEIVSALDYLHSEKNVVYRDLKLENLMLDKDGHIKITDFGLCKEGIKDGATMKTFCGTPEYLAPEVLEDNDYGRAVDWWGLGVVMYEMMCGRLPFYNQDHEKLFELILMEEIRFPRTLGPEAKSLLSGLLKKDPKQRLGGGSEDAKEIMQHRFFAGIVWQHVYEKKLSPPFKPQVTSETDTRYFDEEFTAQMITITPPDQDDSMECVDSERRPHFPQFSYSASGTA
The experiment can be described thus: NanoBRET Target Engagement (TE) Intracellular Kinase Assay. Format: cell-based.
Conditions: not given
The text has this:
The NanoBRET™ Target Engagement (TE) Intracellular Kinase Assays are based on the NanoBRET™ System (Promega Corporation), an energy transfer technique designed to measure molecular proximity in living cells. The NanoBRET™ TE Assays measure the apparent affinity of test compounds by competitive displacement of the NanoBRET™ tracer compound, which is a cell permeable molecule engineered to be reversibly bound to a NanoLuc® luciferase-kinase fusion expressed in cells. For compound screening, when a test compound binds to the selected kinase, the BRET signal is attenuated. […] All cells were evaluated for viability prior to transfection and optimization of the transfection was done prior to experimentation. […] Following transfection, cells were washed and resuspended in Opti-MEM. NanoBRET assays were performed in white, 384-well plates (Corning) at a density of 2×10^5 cells/well. All example compounds were prepared as concentrated stock solutions in DMSO (Sigma-Aldrich). Compounds are dissolved in DMSO to make 10 mM stock solution. […] A Labcyte ECHO 550 compound dispenser was used to facilitate compound transfer directly to cells. Cells were equilibrated for 2 hr with energy transfer probes and example compound prior to BRET measurements. […] For target engagement analysis, the energy transfer probes were added to the cells at concentrations optimized for the target in question (AKT E17K). Following compound incubation, NanoBRET NanoGlo Substrate (Promega Cat #Ni57D) and Extracellular Nanoluc Inhibitor (Promega Cat #N235C) was added according to the manufacturer's recommended protocol, and luminescence was measured on Envision Reader (Perkin Elmer) Multimode Luminometer equipped with 450 nm BPfilter (donor) and 600 nm LPfilter (acceptor), using 0.5 s integration time. Milli-BRET units (mBU) are calculated by multiplying the raw BRET values by 1000. Apparent tracer affinity values (EC50) were determined using the sigmoidal dose-response (variable slope). Competitive displacement data were then plotted and data were fit to determine the EC50 value for each example compound.
A general note: Bioluminescence resonance energy transfer reports proximity on the nanometre scale.
As a reminder, the EC50 is the concentration at which the effect is half-maximal. In the case of `Nc1ncccc1-c1nc2ccc(-c3ccccc3)nc2n1-c1ccc(CN2CCN(c3c(OC4CCCC4)c(=O)c3=O)CC2)cc1` [Example 26, 3-(4-(4-(2-(2-aminopyridin-3-yl)-5-phenyl-3H-imidazo[4,5-b]pyridin-3-yl)benzyl)piperazin-1-yl)-4-(cyclopentyloxy)cyclobut-3-ene-1,2-dione], the concentration for a half-maximal effect (EC50) is above 0.6 µM.
For `COc1c(N2CCC3(CCN(Cc4ccc(-n5c(-c6cccnc6N)nc6ccc(-c7ccccc7)nc65)cc4)CC3)C2)c(=O)c1=O` [Example 54, 3-(8-(4-(2-(2-Aminopyridin-3-yl)-5-phenyl-3H-imidazo[4,5-b]pyridin-3-yl)benzyl)-2,8-diazaspiro[4.5]decan-2-yl)-4-methoxycyclobut-3-ene-1,2-dione], the EC50 lay in the range of 0.015 to 0.06 µM.
The molecule `COc1c(N2CCN(Cc3ccc(-n4c(-c5cccnc5N)nc5cccnc54)cc3)CC2)c(=O)c1=O` [Example 1, 3-(4-(4-(2-(2-Aminopyridin-3-yl)-3H-imidazo[4,5-b]pyridin-3-yl)benzyl)piperazin-1-yl)-4-methoxycyclobut-3-ene-1,2-dione] gave an EC50 above 0.6 µM.
Same read-out and setting: next, `Nc1ncccc1-c1nc2ccc(-c3ccccc3)nc2n1-c1ccc(CN2CCC(Nc3c(OC4CCCC4)c(=O)c3=O)CC2)cc1` [Example 14, 3-((1-(4-(2-(2-Aminopyridin-3-yl)-5-phenyl-3H-imidazo[4,5-b]pyridin-3-yl)benzyl)piperidin-4-yl)amino)-4-(cyclopentyloxy)cyclobut-3-ene-1,2-dione]: 0.06 to 0.6 µM.
Turning to `CN(c1c(S)c(=O)c1=O)C1CCN(Cc2ccc(-n3c(-c4cccnc4N)nc4ccc(-c5ccccc5)nc43)cc2)CC1` [Example 46, 3-((1-(4-(2-(2-aminopyridin-3-yl)-5-phenyl-3H-imidazo[4,5-b]pyridin-3-yl)benzyl)piperidin-4-yl)(methyl)amino)-4-mercaptocyclobut-3-ene-1,2-dione], the half-maximal effective concentration (EC50) is above 0.6 µM.
The same measure, in the same setting: the result for `COc1c(N2CCN(Cc3ccc(-n4c(-c5cccnc5N)nc5ccc(-c6ccccc6)nc54)cc3)C[C@H]2CO)c(=O)c1=O` [Example 80, (S)-3-(4-(4-(2-(2-aminopyridin-3-yl)-5-phenyl-3H-imidazo[4,5-b]pyridin-3-yl)benzyl)-2-(hydroxymethyl)piperazin-1-yl)-4-methoxycyclobut-3-ene-1,2-dione] reads 0.06 to 0.6 µM.
Same read-out and setting: next, `COc1c(N2CCN(Cc3ccc(-n4c(-c5cccnc5N)nc5ccc(-c6cccc(NC(C)=O)c6)nc54)cc3)CC2)c(=O)c1=O` [Example 7, N-(3-(2-(2-Aminopyridin-3-yl)-3-(4-((4-(2-methoxy-3,4-dioxocyclobut-1-en-1-yl)piperazin-1-yl)methyl)phenyl)-3H-imidazo[4,5-b]pyridin-5-yl)phenyl)acetamide]: 0.015 to 0.06 µM.
The same measure, in the same setting: the result for `CSc1c(N(C2CC2)C2CCN(Cc3ccc(-n4c(-c5cccnc5N)nc5ccc(-c6ccccc6)nc54)cc3)CC2)c(=O)c1=O` [Example 95, 3-((1-(4-(2-(2-aminopyridin-3-yl)-5-phenyl-3H-imidazo[4,5-b]pyridin-3-yl)benzy1)piperidin-4-yl)(cyclopropyl)amino)-4-(methylthio)cyclobut-3-ene-1,2-dione] reads 0.015 to 0.06 µM; that for `COc1c(N[C@@H]2CCN(Cc3ccc(-n4c(-c5cccnc5N)nc5ccc(-c6ccccc6)nc54)cc3)C2)c(=O)c1=O` [Example 50, (R)-3-((1-(4-(2-(2-Aminopyridin-3-yl)-5-phenyl-3H-imidazo[4,5-b]pyridin-3-yl)benzyl)pyrrolidin-3-yl)amino)-4-methoxycyclobut-3-ene-1,2-dione], 0.015 to 0.06 µM; that for `COc1c(NC2CCC3(CC2)CCN(Cc2ccc(-n4c(-c5cccnc5N)nc5ccc(-c6ccccc6)nc54)cc2)C3)c(=O)c1=O` (stereo not shown) [Example 52, 3-((2-(4-(2-(2-Aminopyridin-3-yl)-5-phenyl-3H-imidazo[4,5-b]pyridin-3-yl)benzyl)-2-azaspiro[4.5]decan-8-yl)amino)-4-methoxycyclobut-3-ene-1,2-dione], 0.015 to 0.06 µM.
`COc1c(NC2CCCCN(Cc3ccc(-n4c(-c5cccnc5N)nc5ccc(-c6ccccc6)nc54)cc3)C2)c(=O)c1=O` (stereo not shown) [Example 74, 3-((1-(4-(2-(2-aminopyridin-3-yl)-5-phenyl-3H-imidazo[4,5-b]pyridin-3-yl)benzyl)azepan-3-yl)amino)-4-methoxycyclobut-3-ene-1,2-dione] yielded a half-maximal effective concentration (EC50) of 0.06 to 0.6 µM.
As for `CN(C)c1c(NC2CCN(Cc3ccc(-n4c(-c5cccnc5N)nc5ccc(-c6ccccc6)nc54)cc3)CC2)c(=O)c1=O` [Example 19, 3-((1-(4-(2-(2-Aminopyridin-3-yl)-5-phenyl-3H-imidazo[4,5-b]pyridin-3-yl)benzyl)piperidin-4-yl)amino)-4-(dimethylamino)cyclobut-3-ene-1,2-dione], the EC50 is above 0.6 µM.

The same experiment, now with this note: read-out: NanoBRET AKT1E17K EC50; HEK-293 cells transfected with NanoLuc-AKT E17K; competitive displacement of NanoBRET tracer; 2 hr equilibration; 10-point 3-fold dilution.
For `COc1c(N2CCCN(Cc3ccc(-n4c(-c5cccnc5N)nc5ccc(-c6ccccc6)nc54)cc3)CC2)c(=O)c1=O` [Example 38, 3-(4-(4-(2-(2-Aminopyridin-3-yl)-5-phenyl-3H-imidazo[4,5-b]pyridin-3-yl)benzyl)-1,4-diazepan-1-yl)-4-methoxycyclobut-3-ene-1,2-dione], the half-maximal effective concentration (EC50) is below 0.015 µM.
As for `COc1c(N2CCC(OCc3ccc(-n4c(-c5cccnc5N)nc5ccc(-c6ccccc6)nc54)cc3)CC2)c(=O)c1=O` [Example 78, 3-(4-((4-(2-(2-aminopyridin-3-yl)-5-phenyl-3H-imidazo[4,5-b]pyridin-3-yl)benzyl)oxy)piperidin-1-yl)-4-methoxycyclobut-3-ene-1,2-dione], the 50% effective concentration (EC50) was below 0.015 µM.
Same read-out and setting: next, `COc1c(NN2CCN(Cc3ccc(-n4c(-c5cccnc5N)nc5ccc(-c6ccccc6)nc54)cc3)CC2)c(=O)c1=O` [Example 83, 3-((4-(4-(2-(2-aminopyridin-3-yl)-5-phenyl-3H-imidazo[4,5-b]pyridin-3-yl)benzyl)piperazin-1-yl)amino)-4-methoxycyclobut-3-ene-1,2-dione]: below 0.015 µM; `COc1c(NC2CCC3(CC2)CN(Cc2ccc(-n4c(-c5cccnc5N)nc5ccc(-c6ccccc6)nc54)cc2)C3)c(=O)c1=O` [Example 98, 3-((2-(4-(2-(2-aminopyridin-3-yl)-5-phenyl-3H-imidazo[4,5-b]pyridin-3-yl)benzyl)-2-azaspiro[3.5]nonan-7-yl)amino)-4-methoxycyclobut-3-ene-1,2-dione]: below 0.015 µM; `CCSc1c(N(C)C2CCN(Cc3ccc(-n4c(-c5cccnc5N)nc5ccc(-c6ccccc6)nc54)cc3)CC2)c(=O)c1=O` [Example 49, 3-((1-(4-(2-(2-Aminopyridin-3-yl)-5-phenyl-3H-imidazo[4,5-b]pyridin-3-yl)benzyl)piperidin-4-yl)(methyl)amino)-4-(ethylthio)cyclobut-3-ene-1,2-dione]: below 0.015 µM.
On to `COc1c(NC2CCCN(Cc3ccc(-n4c(-c5cccnc5N)nc5ccc(-c6ccccc6)nc54)cc3)CC2)c(=O)c1=O` (stereo not shown) [Example 73, 3-((1-(4-(2-(2-aminopyridin-3-yl)-5-phenyl-3H-imidazo[4,5-b]pyridin-3-yl)benzyl)azepan-4-yl)amino)-4-methoxycyclobut-3-ene-1,2-dione], for which the half-maximal effective concentration (EC50) is below 0.015 µM.
Same read-out and setting: next, `CSc1c(N2C[C@H]3CN(Cc4ccc(-n5c(-c6cccnc6N)nc6ccc(-c7ccccc7)nc65)cc4)C[C@H]3C2)c(=O)c1=O` [Example 87, 3-((3aR,6aS)-5-(4-(2-(2-aminopyridin-3-yl)-5-phenyl-3H-imidazo[4,5-b]pyridin-3-yl)benzyl)hexahydropyrrolo[3,4-c]pyrrol-2(1H)-yl)-4-(methylthio)cyclobut-3-ene-1,2-dione]: below 0.015 µM.
The same measure, in the same setting: next, `COc1c(NC2CCN(Cc3ccc(-n4c(-c5cccnc5N)nc5ccc(-c6ccccc6)nc54)cc3)CC2)c(=O)c1=O` [Example 17, 3-((1-(4-(2-(2-Aminopyridin-3-yl)-5-phenyl-3H-imidazo[4,5-b]pyridin-3-yl)benzyl)piperidin-4-yl)amino)-4-methoxycyclobut-3-ene-1,2-dione]: below 0.015 µM; `CSc1c(NC2CCN(Cc3ccc(-n4c(-c5cccnc5N)nc5ccc(-c6ccccc6)nc54)cc3)CC2)c(=O)c1=O` [Example 45, 3-((1-(4-(2-(2-aminopyridin-3-yl)-5-phenyl-3H-imidazo[4,5-b]pyridin-3-yl)benzyl)piperidin-4-yl)amino)-4-(methylthio)cyclobut-3-ene-1,2-dione]: below 0.015 µM.
The same measure, in the same setting: the result for `COc1c(N(C)[C@H]2CCN(Cc3ccc(-n4c(-c5cccnc5N)nc5ccc(-c6ccccc6)nc54)cc3)C2)c(=O)c1=O` [Example 81, (S)-3-((1-(4-(2-(2-aminopyridin-3-yl)-5-phenyl-3H-imidazo[4,5-b]pyridin-3-yl)benzyl)pyrrolidin-3-yl)(methyl)amino)-4-methoxycyclobut-3-ene-1,2-dione] reads below 0.015 µM.
